The values below come from a melting point compilation (Tetko et al.; mined from patent text by program, amines drawn as free bases though some values may be those of a salt).

A word on the melting point: it is the temperature of the solid-liquid transition.

For `COc1ccc(C(=O)Nc2cc(C(=O)NCc3ccccc3)ccn2)cc1`, the melting point fell in the range of 165 to 166 °C.

`O=[N+]([O-])c1ccc2c(c1)C(Cl)=NC(CF)(CF)O2`: the melting point lay within 75 to 77 °C.

For the compound `CCN(c1ccc([N+](=O)[O-])cc1Cl)S(=O)(=O)c1ccc(C)cc1`, the melting point was in the range of 118 to 119 °C. Under `COc1cncc(OC)c1CCCOc1cccnc1Cc1cccc(Br)c1` stands 153 to 165 °C; under `CC(=O)Nc1ccc(OCC(O)CCCl)cc1` (stereo unspecified), 124 to 127 °C. Under `COc1cc(COc2ccccc2O)cc(OC)c1` stands 55 to 57 °C. Under `COC(=O)CC1OCCN(CCc2c[nH]c3ccccc23)C1=O` (stereo unspecified) stands 144 °C. `CCc1nc2c(o1)C(=O)C=C(Nc1ccc(F)cc1)C2=O` came in with a melting point of 232 °C. The figure for `O=C(O)CCC(=O)CCC(=O)Nc1ccc(Cc2ccc(NC(=O)CCC(=O)CCC(=O)O)cc2)cc1` is 158 to 160 °C; for `CCCCCCCCC(SCCCCCC)C(=O)Nc1c(F)ccc2ncccc12` (stereo unspecified) it is 74 to 75 °C; for `COC1(C)Oc2cccc(O)c2O1` (stereo unspecified) it is 106 to 109 °C. The figure for `OC1CCC(n2cnc3cc(Cl)c(Cl)cc32)C1O` (stereo unspecified) is 180 to 182 °C; for `FC(Cc1ccc(Cl)cc1)(Cn1cncn1)Cn1cncn1` it is 161 to 163 °C; for `CC(C)(C)c1ccc(CCOc2ncnc3nccnc23)cc1` it is 149 °C.

`CC(CO)(CO)C(=O)OCc1ccccc1`: the melting point was in the range of 71.6 to 72.8 °C. As to `Cc1ccc2cccc(OCc3c(Cl)ccc(S(=O)(=O)N(C)Cc4ccccc4)c3Cl)c2n1`, the melting point amounted to 154 °C. Under `Nc1nc2ccc3ccc(CNc4ccc(F)cc4)cc3c2c(=O)[nH]1` stands greater than 230 °C. The figure for `O=C1COc2cc(F)c([N+](=O)[O-])cc2N1` is 200 to 202 °C.

Take `CC1(C)c2ccccc2C(C)(C)C1(S)CCO`: the melting point lay within 85 to 87 °C. The figure for `O=C(O)CNC(=O)NC(CSC(=O)Nc1ccccc1)Cc1ccccc1` (stereo unspecified) is 179 to 181 °C; for `CN(C)CCn1c(=O)c2cccc(N)c2c2cnc3cc4c(cc3c21)OCO4` it is 223 to 224 °C. The figure for `Nc1cc(Cl)c([N+](=O)[O-])cc1OC(=O)c1ccccc1` is 199 to 201 °C; for `COc1nc2ccc([N+](=O)[O-])cc2nc1Cl` it is 155 to 158 °C; for `CC(=NOCCOc1ccc(CC2SC(=O)NC2=O)cc1)c1ccc(-c2ccccc2)cc1` (stereo unspecified) it is 164 to 166 °C. The figure for `CCCS(=O)(=O)c1ccccc1S(=O)(=O)NC(=O)Nc1nc(Cl)cc(OC)n1` is 193 to 195 °C; for `CC(=O)c1ccc2c(c1)C(C)c1cc(C(C)=O)ccc1-2` it is 128 to 129 °C; for `COc1ccc(/C=C/C(=O)N2CC(CCl)c3c2cc([N+](=O)[O-])c2cc(S(=O)(=O)NCCO)ccc32)cc1` (stereo unspecified) it is 250 to 251 °C. On to `CC(=O)CCc1cccc(C(N)=O)c1`, for which the melting point was in the range of 122 to 125 °C. With `N#Cc1nsc2ccc([N+](=O)[O-])cc12`, the melting point was in the range of 168 to 170 °C. The figure for `CCn1nc2c(N)nc3ccccc3c2c1CC(C)(C)N` is 234 to 235 °C; for `COc1cc2c(c(OC)c1OC)C(=O)c1c-2n(C)c(=O)c2ccccc12` it is 194 to 195 °C; for `CCOC(=O)CCCn1c(=O)c2sc(N)nc2n(C)c1=O` it is 170 to 171 °C. The figure for `OC1CSC(Oc2cc(-c3ccnc(F)c3)cc(F)c2F)C(O)C1O` (stereo unspecified) is 184 °C. Under `CC1Sc2c(C(=O)O)c(=O)c3cc(F)c(N4CCSCC4)cc3n21` (stereo unspecified) stands 229 to 231 °C; under `O=C(CCc1ccc(NC2=NCCN2)cc1)c1ccc(F)cc1`, 190 to 191 °C; under `CC(CF)(CF)C(=O)NC(CO)c1ccc(C(C)(C)C)cc1` (stereo unspecified), 141 °C. For the compound `O=C(NCCCN1CC=C(c2ccc(Cl)cc2)CC1)C(F)(F)F`, the melting point is 105 to 107 °C. Compound `CC(=O)Nc1nn(C)c2nc3n(c(=O)c12)CCS3` registered a melting point of 250 to 252 °C.

`O=c1c2ccc(Cl)cc2[nH]c2c(O)nn(Cc3ccco3)c(=O)c12` had a melting point greater than 265 °C. The figure for `CC(C)(C)OC(=O)NC(C(=O)O)C1(O)CCOCC1` (stereo unspecified) is 140 to 141 °C; for `COc1ccc(C2(O)CCN(CC3CN(c4cccc(OC)c4)C(=O)O3)CC2)cc1` (stereo unspecified) it is 158 to 160 °C; for `CC1(C)Oc2cc(Cl)c(F)cc2[C@@H](Br)[C@@H]1O` (relative stereo) it is 97 to 99 °C. The figure for `COc1ccc(CC2CCC3NCC(CO)CC3C2)cc1` (stereo unspecified) is 160 to 162 °C; for `Cc1cc(O)c(C(=O)CCC(F)(F)F)c(=O)o1` it is 104 °C; for `COc1ccc(CNc2nc(SC)nc(OC)c2C(=O)O)cc1Cl` it is 167 to 170 °C.

`CCOC(=O)CN(Cc1ccccc1Cl)c1ccc(C(O)(C(F)(F)F)C(F)(F)F)cc1` displayed a melting point of 146 °C. Under `COC(=O)C1Cc2c(cccc2C(C)C)C(=O)CS1` (stereo unspecified) stands 116 to 117 °C.

Consider `Cc1ccc2c(N)nc(-c3cccc4ccccc34)cc2c1`, for which the melting point is 170 °C. Under `O=C(O)Cc1cccc(Cc2nc3c(F)c(F)cc(F)c3s2)c1Cl` stands 156 to 158 °C. As for `Cc1ccc(NC(=O)c2ccc(CN3C(=O)C4(COc5cc6c(cc54)CCO6)c4ccccc43)cc2)c(C)c1` (stereo unspecified), the melting point fell in the range of 249 to 251 °C. The figure for `NC(=NCC(F)(F)F)Nc1ccnc(SCCCNC(=O)c2ccco2)n1` is 127 to 129 °C. The compound `COC(=O)C[C@H](O)C[C@@H](O)C=Cc1c(-c2ccc(F)cc2)c(-c2ccc(F)cc2)c(C(=O)OCc2ccccc2)n1C(C)C` yielded a melting point of 105 to 107 °C.

`O=C1Nc2ccc(CN3C(=O)CSC3=O)c(F)c2C1=Cc1cc(CN2CCOCC2)c[nH]1` returned a melting point of 246 to 248 °C.

`CCOC(=O)NNC(=O)Nc1c(F)cc(F)cc1F` registered a melting point of 177 to 178 °C. The figure for `CCOC(=O)C(=O)Nc1c(C)c(C)c2c(c1C)C(c1ccc(C(C)C)cc1)CO2` (stereo unspecified) is 83 to 84 °C. As to `Cc1ccc2c(c1)NC(=O)C(NC(=O)Nc1cccc(Cl)c1)CC2C1CCCCC1` (stereo unspecified), the melting point was 162 to 169 °C.

With `COc1ccccc1-c1ccc(C(=O)N2Cc3cccn3Cc3ccccc32)cc1`, the melting point lay in the range of 250 to 253 °C. The figure for `CCSC1(SC)CCC2C3CCC4=CC(=O)C=CC4(C)C3(F)C(OC(C)=O)CC21C` (stereo unspecified) is 140 to 142 °C. The figure for `CNc1ccc(Cl)cc1-c1cc2ccccc2[nH]1` is 123 to 126 °C; for `CCNC(=O)NCCC1CCc2ccc(OC)cc21` (stereo unspecified) it is 90 to 92 °C; for `CCCn1c(C#N)c(Cl)n(-c2ccc(Cl)cc2)c1=O` it is 102 to 103 °C.

`CCCCCC(C)(c1ccc(O)c(C)c1)c1ccc(O)c(C)c1`: the melting point was 99 to 101 °C. `COc1cc(C2COc3c(C)c(C)c(NC(=O)CC(C)(C)C)c(C)c32)ccc1C(C)C` (stereo unspecified) returned a melting point of 170 to 171 °C. The figure for `O=C(Nc1cccc(NCc2ccccc2)n1)c1cc(-c2ccc(F)cc2)n(C2CCCCO2)n1` (stereo unspecified) is 139 to 140 °C; for `CC1CC=CC2C(=O)OC(=O)C12` (stereo unspecified) it is 55 °C.

Regarding `Cc1nc(Cn2nc(-c3c(-c4ccccc4)nn4ccccc34)ccc2=O)cs1`, the melting point was 196 to 198 °C. Under `O=C(O)C(Cc1ccccc1)C(=O)NCc1cccc2ccccc12` (stereo unspecified) stands 142 to 145 °C; under `CCOc1nn(-c2cc(C(F)(F)F)ccn2)cc1CCCOc1cccc(CC(=O)O)c1`, 128 to 130 °C; under `CN(Cc1cccc2c1C(=O)N(C1CCC(=O)NC1=O)C2=O)C(=O)OC(C)(C)C` (stereo unspecified), 138 to 140 °C.

`COC(=O)CCc1cc2cc(F)c(Cl)cc2n1S(=O)(=O)c1ccccc1` returned a melting point of 127 to 130 °C. The figure for `CCNC1CCN(c2c(F)cc3c(=O)c(C(=O)O)cn(C4CC4)c3c2F)C1` (stereo unspecified) is 236 to 238 °C.

On to `CC(=O)NCc1ccsc1`, for which the melting point fell in the range of 46 to 47 °C. The figure for `CN(C)c1ccc(C(N)P(O)O)cc1` (stereo unspecified) is 223 to 224 °C.

Turning to `O=C(NC(=O)N1CCC(Cc2ccccc2)CC1)c1ccc2[nH]ccc2c1`, the melting point lay in the range of 110 to 112 °C. `O=C1CC(C(=O)O)Oc2ccccc21` (stereo unspecified) registered a melting point of 170 to 171 °C. The figure for `CS(=O)(=O)c1ccc(-n2nc(C(F)(F)F)cc2-c2ccc(-c3cscn3)c(Cl)c2)cc1F` is 108 to 110 °C; for `Oc1ccc2nc(-c3cccc4c(O)cccc34)oc2c1` it is 240 to 242 °C. Under `CCn1cc(C(=O)O)c(=O)c2c(F)c(F)c(N3CCCC3)c(F)c21` stands greater than 320 °C; under `CC(C)C[C@H](NC(=O)[C@H](Cc1cccc2ccccc12)NC(=O)OCc1ccccc1)C(=O)NN`, 200 to 204 °C. `CN(C)c1ccccc1CSC1=NC(SCc2ccccc2)=NC1(C)C` yielded a melting point of 91 to 92 °C. Under `CC(=O)N1C(=O)NC2(C1=O)C(=O)N(Cc1ccc(Cl)c(Cl)c1)c1ccccc12` (stereo unspecified) stands 185 to 187 °C; under `O=C1Cc2c(cccc2-c2ccccc2)N1`, 192 to 194 °C; under `NS(=O)(=O)c1ccsc1`, 187 to 190 °C. Under `Cc1cc(Cl)ccc1NC(=O)NC(=O)C(Cl)CCl` (stereo unspecified) stands 111 to 113 °C. Under `Clc1cc(OC[C@@H]2CCN2)cnc1Cl` stands 59 to 60 °C; under `CN1CCC(n2ccc(-c3ccc(F)cc3)c2-c2ccncc2)CC1`, 187 to 189 °C. As for `COc1ccc(COc2cccc(C(=O)O)c2OCc2ccc(OC)cc2)cc1`, the melting point is 129 °C. The figure for `O=C(Nc1cccc2c1C(=O)c1c-2n[nH]c1C1CCN(C(=O)N2C[C@@H]3C[C@H]2CN3)CC1)NN1CCOCC1` is 196 to 198 °C; for `COc1ccc2c(c1)C(=O)N(c1ccc3c(ccn3C)n1)C2` it is 230 to 234 °C. The figure for `CC(=S)NCC1CN(c2ccc(N3CCC4(CC3)NC(=O)NC4=O)c(F)c2)C(=O)O1` (stereo unspecified) is 218 °C; for `Cc1cc(-c2cnn3c(C(F)(F)F)cc(-c4ccc(Cl)c(Cl)c4)nc23)ccn1` it is 275 °C.
